Assay results taken from US20110039762A1, “TARGETED ANTIMICROBIAL MOIETIES” (C3 JIAN, INC., priority 2009, published 2011).
Entries after “also recorded” stand apart in the source; their conditions may differ.

Tests used:
[1] = test system: microorganisms (e.g., bacteria, yeasts, fungi); assay: Targeting peptide binding to target microorganisms (Table 3); conditions: preferably 1x PBS; for Target(s) (microorganisms bound by the targeting peptide): peptide binding in aqueous buffers varied by peptide solubility
[2] = test system: S. mutans; assay: Kill or inhibit growth/proliferation; morphology, biofilm and growth disruption (Tables 5, 6); assay type: cell-based, Streptococcus mutans; set-up: key: A: Peptide aggregates; B: Less hyphal formation; Clumps; Diffuse clumps and small polyps; F: Diffuse growth; H: Thin; I: Growth inhibition; Microcolony formation; Rippled; Small polyps; Thick; W: Halo formation on top, microlonies on bottom; further: test concentration or dose not given here
[3] = test system: microorganisms; assay: Peptides having multiple activities (targeting/binding, antimicrobial, growth or phenotype altering)
Text: In certain embodiments, peptides described herein can have multiple activities. Thus for example, a peptide can have both binding/targeting activity and antimicrobial activity. Such peptides can be used, e.g., in a chimeric construct, for any or all of these properties. Thus, for example, a peptide designated “B” in Table 8 can be used as a targeting peptide. If it is also designated G or M it can also be used for antimicrobial activity.

[4] = test system: M. luteus; assay: Kill or inhibit growth/proliferation; morphology, biofilm and growth disruption (Tables 5, 6); assay type: cell-based, Micrococcus luteus; set-up: key: A: Peptide aggregates; B: Less hyphal formation; Clumps; Diffuse clumps and small polyps; F: Diffuse growth; H: Thin; I: Growth inhibition; Microcolony formation; Rippled; Small polyps; Thick; W: Halo formation on top, microlonies on bottom; further: test concentration or dose not given here
[5] = test system: S. pneumoniae; assay: as above; assay type: cell-based, Streptococcus pneumoniae; set-up: key: A: Peptide aggregates; B: Less hyphal formation; Clumps; Diffuse clumps and small polyps; F: Diffuse growth; H: Thin; I: Growth inhibition; Microcolony formation; Rippled; Small polyps; Thick; W: Halo formation on top, microlonies on bottom; further: test concentration or dose not given here
[6] = test system: C. jejuni; assay: as above; assay type: cell-based, Campylobacter jejuni; set-up: key: A: Peptide aggregates; B: Less hyphal formation; Clumps; Diffuse clumps and small polyps; F: Diffuse growth; H: Thin; I: Growth inhibition; Microcolony formation; Rippled; Small polyps; Thick; W: Halo formation on top, microlonies on bottom; further: test concentration or dose not given here
[7] = test system: B. subtilis; assay: as above; assay type: cell-based, Bacillus subtilis; set-up: key: A: Peptide aggregates; B: Less hyphal formation; Clumps; Diffuse clumps and small polyps; F: Diffuse growth; H: Thin; I: Growth inhibition; Microcolony formation; Rippled; Small polyps; Thick; W: Halo formation on top, microlonies on bottom; further: test concentration or dose not given here
[8] = test system: C. albicans; assay: as above; assay type: cell-based, Candida albicans; set-up: key: A: Peptide aggregates; B: Less hyphal formation; Clumps; Diffuse clumps and small polyps; F: Diffuse growth; H: Thin; I: Growth inhibition; Microcolony formation; Rippled; Small polyps; Thick; W: Halo formation on top, microlonies on bottom; further: test concentration or dose not given here
[9] = test system: S. epidermidis; assay: as above; assay type: cell-based, Staphylococcus epidermidis; set-up: key: A: Peptide aggregates; B: Less hyphal formation; Clumps; Diffuse clumps and small polyps; F: Diffuse growth; H: Thin; I: Growth inhibition; Microcolony formation; Rippled; Small polyps; Thick; W: Halo formation on top, microlonies on bottom; further: test concentration or dose not given here
[10] = test system: MRSA; assay: as above; assay type: cell-based, Methicillin-resistant Staphylococcus aureus; set-up: key: A: Peptide aggregates; B: Less hyphal formation; Clumps; Diffuse clumps and small polyps; F: Diffuse growth; H: Thin; I: Growth inhibition; Microcolony formation; Rippled; Small polyps; Thick; W: Halo formation on top, microlonies on bottom; further: test concentration or dose not given here
[11] = test system: P. aeruginosa; assay: as above; assay type: cell-based, Pseudomonas aeruginosa; set-up: key: A: Peptide aggregates; B: Less hyphal formation; Clumps; Diffuse clumps and small polyps; F: Diffuse growth; H: Thin; I: Growth inhibition; Microcolony formation; Rippled; Small polyps; Thick; W: Halo formation on top, microlonies on bottom; further: test concentration or dose not given here
[12] = test system: E. coli; assay: as above; assay type: cell-based, Escherichia coli; set-up: key: A: Peptide aggregates; B: Less hyphal formation; Clumps; Diffuse clumps and small polyps; F: Diffuse growth; H: Thin; I: Growth inhibition; Microcolony formation; Rippled; Small polyps; Thick; W: Halo formation on top, microlonies on bottom; further: test concentration or dose not given here
[13] = test system: C. jeikeium; assay: as above; assay type: cell-based, Corynebacterium jeikeium; set-up: key: A: Peptide aggregates; B: Less hyphal formation; Clumps; Diffuse clumps and small polyps; F: Diffuse growth; H: Thin; I: Growth inhibition; Microcolony formation; Rippled; Small polyps; Thick; W: Halo formation on top, microlonies on bottom; further: test concentration or dose not given here
[14] = test system: E. faecalis; assay: as above; assay type: cell-based, Enterococcus faecalis; set-up: key: A: Peptide aggregates; B: Less hyphal formation; Clumps; Diffuse clumps and small polyps; F: Diffuse growth; H: Thin; I: Growth inhibition; Microcolony formation; Rippled; Small polyps; Thick; W: Halo formation on top, microlonies on bottom; further: test concentration or dose not given here
[15] = microorganism the targeting peptide binds, binding in aqueous buffers varied by peptide solubility

Substance	Target(s) (microorganisms bound by the targeting peptide) [1]	Organism, effect (morphology, biofilm and growth disruption) [2]	Activities [3]	Organism, effect [5]	Organism, effect [9]	Organism, effect [10]	also measured
GNVHPESDFHNLIQFIKTFLYFTIFFKYFL [PF-C290]	A. naeslundii; also recorded: F. nucleatum; also recorded: P. gingivalis; also recorded: S. mutans; also recorded: T. denticola	S. mutans (F)	G B	–	–	–	–
HCVIGNVVDIANLLKRRAVYRDIADVIKMR [PF-071]	–	–	G B	S. pneumoniae (A)	S. epidermidis (R)	MRSA (C)	Organism, effect [4]: M. luteus (R); Target(s) [1, 15]: S. epidermidis and E. coli and P. aeruginosa and C. albicans and MRSA and S. pneumoniae and E. faecalis; Organism, effect [6]: C. jejuni (A); Organism, effect [7]: B. subtilis (D); Organism, effect [8]: C. albicans (B)
KKFKIFVIINWFYHKYIILNFEENF [PF-C085]	A. naeslundii; also recorded: F. nucleatum; also recorded: P. gingivalis; also recorded: S. mutans; also recorded: T. denticola	S. mutans (F)	G B	–	–	–	–
LSPRPIIVSRRSRADNNNDWSR [PF-143]	–	–	G B	–	–	–	Target(s) ([1]; microorganism(s) the targeting peptide binds, binding in aqueous buffers depending on peptide solubility): S. epidermidis and MRSA and C. jeikeium; Organism, effect [11]: P. aeruginosa (C)
PF-020: peptide having multiple activities (chain 1 MKIILLLFLIFGFIVVVTLKSEHQLTLFSI; chain 2 MKIILLLFLIFGFIVVVTLKSEHQLTLFSI; Peptide with targeting and/or antimicrobial activity)	–	–	G B	S. pneumoniae (D)	S. epidermidis (C)	MRSA (C)	Organism, effect [4]: M. luteus (C); Target(s) [1, 15]: S. epidermidis and M. luteus and C. albicans and MRSA and S. pneumoniae and E. faecalis; Organism, effect [2]: S. mutans (F)
PF-051: peptide having multiple activities (chain 1 RFFNFEIKKSTKVDYVFAHVDLSDV; chain 2 RFFNFEIKKSTKVDYVFAHVDLSDV; Peptide with targeting and/or antimicrobial activity)	–	–	G B	S. pneumoniae (D)	S. epidermidis (D)	MRSA (D)	Organism, effect [4]: M. luteus (C); Target(s) [1, 15]: S. epidermidis and M. luteus and P. aeruginosa and C. albicans and MRSA and S. pneumoniae and E. faecalis; Organism, effect [2]: S. mutans (D)
PF-543: peptide having multiple activities (chain 1 NILFGIIGFVVAMTAAVIVTAISIAK; chain 2 NILFGIIGFVVAMTAAVIVTAISIAK; Peptide with targeting and/or antimicrobial activity)	–	–	G B	S. pneumoniae (D)	S. epidermidis (D)	MRSA (D)	Organism, effect [4]: M. luteus (C); Organism, effect [12]: E. coli (C); Organism, effect [2]: S. mutans (S)
PF-632: peptide having multiple activities (chain 1 TTIQGVASLEKHGFRYTIIYPTRI; chain 2 TTIQGVASLEKHGFRYTIIYPTRI; Peptide with targeting and/or antimicrobial activity)	S. epidermidis and P. aeruginosa and C. albicans and MRSA and S. pneumoniae and E. faecalis and C. jeikeium	–	G B	S. pneumoniae (M)	S. epidermidis (D)	MRSA (D)	Organism, effect [13]: C. jeikeium (D); Organism, effect [7]: B. subtilis (H); Organism, effect [8]: C. albicans (B); Organism, effect [14]: E. faecalis (D)
PF-668 (chain 1 TNAESMALAFRGRVHMSVNIAGLT; chain 2 TNAESMALAFRGRVHMSVNIAGLT; Peptide with targeting and/or antimicrobial activity)	Mycobacteria spp	–	–	–	–	–	Organism, effect (morphology, biofilm and growth disruption) [5]: S. pneumoniae (M); Organism, effect (morphology, biofilm and growth disruption) [13]: C. jeikeium (D); Organism, effect (morphology, biofilm and growth disruption) [7]: B. subtilis (A); Organism, effect (morphology, biofilm and growth disruption) [8]: C. albicans (A); Organism, effect (morphology, biofilm and growth disruption) [14]: E. faecalis (D); Organism, effect (morphology, biofilm and growth disruption) [9]: S. epidermidis (M); Organism, effect (morphology, biofilm and growth disruption) [10]: MRSA (R)
PF-776: peptide having multiple activities (VSILLYLSATIILPNVLRLLVARAIIVRV; Peptide with targeting and/or antimicrobial activity)	S. epidermidis and M. luteus and P. mirabilis and C. albicans and MRSA and S. pneumoniae and E. faecalis	S. mutans (D)	G B	–	–	–	Organism, effect (morphology, biofilm and growth disruption) [4]: M. luteus (C); Organism, effect (morphology, biofilm and growth disruption) [12]: E. coli (C); Organism, effect (morphology, biofilm and growth disruption) [5]: S. pneumoniae (C); Organism, effect (morphology, biofilm and growth disruption) [9]: S. epidermidis (D); Organism, effect (morphology, biofilm and growth disruption) [10]: MRSA (D)
PF-C057: peptide having multiple activities (YFWWYWVQDCIPYKNNEVWLELSNNMK; Peptide with targeting and/or antimicrobial activity)	A. naeslundii; also recorded: F. nucleatum; also recorded: P. gingivalis; also recorded: S. mutans	S. mutans (I)	G B	–	–	–	–
PF-C139: peptide having multiple activities (LLASHPERLSLGVFFVYRVLHLLLENT; Peptide with targeting and/or antimicrobial activity)	A. naeslundii; also recorded: F. nucleatum; also recorded: P. gingivalis; also recorded: S. mutans; also recorded: T. denticola	S. mutans (F)	G B	–	–	–	–
PF-C142: peptide having multiple activities (DFPPLSFFRRRFHAYTAPIDNFFGANPF; Peptide with targeting and/or antimicrobial activity)	A. naeslundii; also recorded: F. nucleatum; also recorded: P. gingivalis; also recorded: S. mutans; also recorded: T. denticola	S. mutans (I)	G B	–	–	–	–
PF-C281: peptide having multiple activities (KKEKLLTAIRLQHRAEIRGYFTIFFLFFRI; Peptide with targeting and/or antimicrobial activity)	A. naeslundii; also recorded: F. nucleatum; also recorded: P. gingivalis; also recorded: S. mutans; also recorded: T. denticola	S. mutans (F)	G B	–	–	–	–
